Source: patent publication US9555038B2, “Heterocycle-substituted tetracyclic compounds and methods of use thereof for the treatment of viral diseases” (Merck Sharp & Dohme Corp., priority 2013, dated 2017)
Like-named read-outs stand apart in the source and are kept apart here.

How the values were obtained:
HCV replicon 1AY93H = assay: Cell-based HCV Replicon Assay A, replicon 1AY93H
Procedure: (§1) To measure cell-based anti-HCV activity of compounds of the present invention, two complimentary assays were employed using various replicons. In the first assay (“Replicon Assay A”), replicon cells were seeded at 2000 cells/well in 384-well 384-well flat bottom tissue culture treated clear bottom plate (Corning 3707) in the presence of the test compound. Various concentrations of test compound, typically in 10 serial dilutions, were added to the assay mixture, with the starting concentration ranging from 333.3 nM to […]. The final concentration of DMSO was 0.5%. Fetal bovine serum was 5%, in the assay media. Cells were harvested on day 3 by removing media and washing the cells with a suitable wash buffer. The cells are lysed with the addition of 1× Qiagen lysis buffer (Cat #1062731). The replicon RNA level was measured using real time PCR (TaqMan® EZ RT-PCR, Applied Biosystems 403028) with the following primers and probes: […]
(§2) Cyclophilin RNA was used as endogenous control and was amplified in the same reaction as NS5B (multiplex PCR). The real-time RT-PCR reactions were run on ABI PRISM 7900HT Sequence Detection System using the following program: 50° C. for 2 minutes, 60° C. for 30 minutes, 95° C. for 5 minutes, 40 cycles of 94° C. for 20 sec, 55° C. for 1 minutes.
(§3) The amount of HCV replicon RNA per cell is quantified using a linear regression curve for a known nanogram (ng) amount of HCV replicon total RNA. This is established by plotting the Cycle Threshold values (Ct) from the Neo probe and primer set versus the log (ng) for each HCV replicon total RNA standard. The amount of HCV RNA for each replicon sample is calculated by taking the sample's Ct value, minus the line intercept, divided by the slope of the line. Similarly, the amount of Cyclophilin mRNA per cell is also quantified using a linear regression curve for a known nanogram (ng) amount of HCV replicon total RNA. Again, this is established by plotting the Cycle Threshold values (Ct) from the Cyclophilin probe and primer set versus the log (ng) for each HCV replicon total RNA standard.
(§4) Data was obtained for various compounds of the present invention using the methods described in the Example above, and is presented in the table immediately below. Data for replicons 1A, 1AY93H and 2B were obtained using Replicon Assay A and data for replicons 1AQ30D and 1B were obtained using Replicon Assay B.

HCV replicon 1A = assay: Cell-based HCV Replicon Assay A, replicon 1A
Procedure: as §1, §2, §3, §4

HCV replicon 2B = assay: Cell-based HCV Replicon Assay A, replicon 2B
Procedure: as §1, §2, §3, §4

[1] = read-out: 1A Y93H IC50, replicon 1AY93H
[2] = Hepatitis C virus, read-out: 1A Y93H IC50 (nM), replicon 1AY93H
[3] = Hepatitis C virus, read-out: 2B IC50 (nM), replicon 2B

SMILES | IC50 (HCV replicon 1AY93H; [1]) | IC50 (HCV replicon 1A; Hepatitis C virus) | IC50 (HCV replicon 2B; read-out: 2B IC50, replicon 2B) | IC50 (HCV replicon 1A) | IC50 (HCV replicon 1AY93H; [2]) | IC50 (HCV replicon 2B; [3])
COC(=O)NC(C(=O)N1CCC[C@H]1c1ncc(-c2ccc3c(c2)cc2n3C(c3cnc(-c4ccc(F)cc4)s3)Oc3cc(-c4cnc([C@@H]5CCCN5C(=O)[C@@H](NC(=O)OC)C(C)C)[nH]4)cc(F)c3-2)[nH]1)C1C[C@@H](C)O[C@@H](C)C1 (single isomer, unassigned) [Compound 80] | 0.0504 nM | 0.0015 nM | 0.047 nM | – | – | –
CCc1ncc(C2Oc3cc(-c4cnc([C@@H]5CCCN5C(=O)[C@@H](NC(=O)OC)C(C)C)[nH]4)cc(F)c3-c3cc4cc(-c5cnc([C@@H]6CCCN6C(=O)[C@@H](NC(=O)OC)C(C)C)[nH]5)ccc4n32)s1 (single isomer, unassigned) [Compound 82] | 1.58 nM | – | 1.1 nM | 0.0023 nM | – | –
CCc1ncc(C2Oc3cc(-c4cnc([C@@H]5CCCN5C(=O)[C@@H](NC(=O)OC)C(C)C)[nH]4)cc(F)c3-c3cc4cc(-c5cnc([C@@H]6C[C@H]7C[C@H]7N6C(=O)[C@@H](CC(=O)OC)C(C)C)[nH]5)ccc4n32)s1 (single isomer, unassigned) [Compound 84] | 0.0708 nM | – | 0.425 nM | 0.0037 nM | – | –
CCCc1ncc(C2Oc3cc(-c4cnc([C@@H]5CCCN5C(=O)[C@@H](NC(=O)OC)C(C)C)[nH]4)cc(F)c3-c3cc4cc(-c5cnc([C@@H]6C[C@H]7C[C@H]7N6C(=O)[C@@H](NC(=O)OC)C(C)C)[nH]5)ccc4n32)s1 (single isomer, unassigned) [Compound 91] | 0.0537 nM | – | 0.17 nM | 0.0021 nM | – | –
COC(=O)N[C@H](C(=O)N1CCC[C@H]1c1ncc(-c2cc(F)c3c(c2)OC(c2cnc(-c4ccc(F)cc4F)s2)n2c-3cc3cc(-c4cnc([C@@H]5CCCN5C(=O)[C@@H](NC(=O)OC)C(C)C)[nH]4)ccc32)[nH]1)C(C)C (single isomer, unassigned) [Compound 99] | 0.26 nM | – | 0.1 nM | 0.0016 nM | – | –
COC(=O)NC(C(=O)N1[C@@H]2C[C@@H]2C[C@H]1c1ncc(-c2ccc3c(c2)c(F)c2n3C(c3cnc(C4CC4)s3)Oc3cc(-c4cnc([C@@H]5CCCN5C(=O)[C@@H](NC(=O)OC)C(C)C)[nH]4)cc(F)c3-2)[nH]1)C1CCOC(C)(C)C1 (single isomer, unassigned) [Compound 113] | 0.678 nM | – | 0.176 nM | 0.002 nM | – | –
CCCc1ncc(C2Oc3cc(-c4cnc([C@@H]5CCCN5C(=O)[C@@H](NC(=O)OC)C(C)C)[nH]4)cc(C)c3-c3cc4cc(-c5cnc([C@@H]6C[C@H]7C[C@H]7N6C(=O)[C@@H](NC(=O)OC)C(C)C)[nH]5)ccc4n32)s1 (single isomer, unassigned) [Compound 205] | 2.46 nM | 0.006 nM | 0.57 nM | – | – | –
COC(=O)N[C@H](C(=O)N1CCC[C@H]1c1ncc(-c2cc(C)c3c(c2)OC(c2cnc(C4CC4)s2)n2c-3cc3cc(-c4cnc([C@@H]5C[C@H]6C[C@H]6N5C(=O)[C@@H](NC(=O)OC)C(C)(C)F)[nH]4)ccc32)[nH]1)C(C)C (single isomer, unassigned) [Compound 209] | 0.197 nM | – | 0.155 nM | 0.003 nM | – | –
COC(=O)NC(C(=O)N1CCC[C@H]1c1ncc(-c2ccc3c(c2)cc2n3C(c3cnc(C4CC4)s3)Oc3cc(-c4cnc([C@@H]5CCCN5C(=O)[C@@H](NC(=O)OC)C(C)C)[nH]4)cc(C)c3-2)[nH]1)C1C[C@@H](C)O[C@@H](C)C1 (single isomer, unassigned) [Compound 215] | – | 0.0024 nM | – | – | 0.828 nM | 0.09 nM
COC(=O)NC(C(=O)N1CCC[C@H]1c1ncc(-c2ccc3c(c2)cc2n3C(c3cnc(C4CCC4)s3)Oc3cc(-c4cnc([C@@H]5CCCN5C(=O)[C@@H](NC(=O)OC)C(C)C)[nH]4)cc(C)c3-2)[nH]1)C1C[C@@H](C)O[C@@H](C)C1 (single isomer, unassigned) [Compound 218] | 0.12 nM | 0.002 nM | 0.035 nM | – | – | –
COC(=O)NC(C(=O)N1[C@@H]2C[C@@H]2C[C@H]1c1ncc(-c2ccc3c(c2)cc2n3C(c3cnc(C4CCC4)s3)Oc3cc(-c4cnc([C@@H]5CCCN5C(=O)[C@@H](NC(=O)OC)C(C)C)[nH]4)cc(C)c3-2)[nH]1)C(C)(C)F (single isomer, unassigned) [Compound 224] | – | 0.0027 nM | – | – | 0.462 nM | 0.204 nM
COC(=O)NC(C(=O)N1CCC[C@H]1c1ncc(-c2ccc3c(c2)cc2n3C(c3cnc(C4CC4)s3)Oc3cc(-c4cnc([C@@H]5CCCN5C(=O)[C@@H](NC(=O)OC)C(C)C)[nH]4)cc(F)c3-2)[nH]1)C1C[C@@H](C)O[C@@H](C)C1 (single isomer, unassigned) [Compound 306] | 0.244 nM | 0.003 nM | 0.145 nM | – | – | –
COC(=O)NC(C(=O)N1[C@@H]2C[C@@H]2C[C@H]1c1ncc(-c2ccc3c(c2)cc2n3C(c3cnc(C(C)(C)C)s3)Oc3cc(-c4cnc([C@@H]5CCCN5C(=O)[C@@H](NC(=O)OC)C(C)C)[nH]4)cc(F)c3-2)[nH]1)C(C)C (single isomer, unassigned) [Compound 323] | 0.0051 nM | 0.0032 nM | 0.078 nM | – | – | –
COC(=O)NC(C(=O)N1[C@@H]2C[C@@H]2C[C@H]1c1ncc(-c2ccc3c(c2)cc2n3C(c3cnc(C(C)(C)C)s3)Oc3cc(-c4cnc([C@@H]5CCCN5C(=O)[C@@H](NC(=O)OC)C(C)C)[nH]4)cc(F)c3-2)[nH]1)C(C)C (single isomer, unassigned) [Compound 324] | 0.263 nM | – | 1.67 nM | 0.002 nM | – | –
COC(=O)NC(C(=O)N1[C@@H]2C[C@@H]2C[C@H]1c1ncc(-c2ccc3c(c2)cc2n3C(c3cnc(C4CCCC4)s3)Oc3cc(-c4cnc([C@@H]5CCCN5C(=O)[C@@H](NC(=O)OC)C(C)C)[nH]4)cc(F)c3-2)[nH]1)C(C)(C)F (single isomer, unassigned) [Compound 327] | 0.002 nM | 0.0012 nM | 0.011 nM | – | – | –
COC(=O)NC(C(=O)N1[C@@H]2C[C@@H]2C[C@H]1c1ncc(-c2ccc3c(c2)cc2n3C(c3cnc(C4CCCC4)s3)Oc3cc(-c4cnc([C@@H]5CCCN5C(=O)[C@@H](NC(=O)OC)C(C)C)[nH]4)cc(F)c3-2)[nH]1)C(C)(C)F (single isomer, unassigned) [Compound 328] | 0.0463 nM | – | 0.163 nM | 0.0015 nM | – | –
COC(=O)N[C@H](C(=O)N1CCC[C@H]1c1ncc(-c2cc(F)c3c(c2)OC(c2nc4ccccc4s2)n2c-3cc3cc(-c4cnc([C@@H]5CCCN5C(=O)[C@@H](NC(=O)OC)C(C)C)[nH]4)ccc32)[nH]1)C(C)C (single isomer, unassigned) [Compound 401] | – | 0.0085 nM | 0.634 nM | – | 0.346 nM | –
COC(=O)N[C@H](C(=O)N1CCC[C@H]1c1ncc(-c2cc(F)c3c(c2)OC(c2cnc(-c4ccccn4)s2)n2c-3cc3cc(-c4cnc([C@@H]5CCCN5C(=O)[C@@H](NC(=O)OC)C(C)C)[nH]4)ccc32)[nH]1)C(C)C (single isomer, unassigned) [Compound 406] | – | 0.003 nM | – | – | 0.0034 nM | 0.005 nM
COC(=O)N[C@H](C(=O)N1CCC[C@H]1c1ncc(-c2cc(F)c3c(c2)OC(c2cnc(-c4ccc(C)o4)s2)n2c-3cc3cc(-c4cnc([C@@H]5CCCN5C(=O)[C@@H](NC(=O)OC)C(C)C)[nH]4)ccc32)[nH]1)C(C)C (single isomer, unassigned) [Compound 413] | – | 0.0036 nM | 0.173 nM | – | 0.0196 nM | –
COC(=O)N[C@H](C(=O)N1CCC[C@H]1c1ncc(-c2cc(F)c3c(c2)OC(c2nc(C(F)(F)F)cs2)n2c-3cc3cc(-c4cnc([C@@H]5CCCN5C(=O)[C@@H](NC(=O)OC)C(C)C)[nH]4)ccc32)[nH]1)C(C)C (single isomer, unassigned) [Compound 419] | 17.9 nM | – | – | 0.0041 nM | – | 6.47 nM
COC(=O)N[C@H](C(=O)N1CCC[C@H]1c1ncc(-c2cc(F)c3c(c2)OC(c2nc(C(F)(F)F)cs2)n2c-3cc3cc(-c4cnc([C@@H]5CCCN5C(=O)[C@@H](NC(=O)OC)C(C)C)[nH]4)ccc32)[nH]1)C(C)C (single isomer, unassigned) [Compound 420] | 1.87 nM | – | 5.56 nM | 0.0101 nM | – | –
CCC(CC)c1ncc(C2Oc3cc(-c4cnc([C@@H]5CCCN5C(=O)[C@@H](NC(=O)OC)C(C)C)[nH]4)cc(F)c3-c3cc4cc(-c5cnc([C@@H]6CCCN6C(=O)[C@@H](NC(=O)OC)C(C)C)[nH]5)ccc4n32)s1 (single isomer, unassigned) [Compound 421] | – | – | – | 0.0037 nM | 0.014 nM | 0.103 nM
